Data: paper PMC9656787, “Design, Synthesis and Biological Evaluation of Novel 1,3,5-Triazines: Effect of Aromatic Ring Decoration on Affinity to 5-HT7 Receptor” (International Journal of Molecular Sciences, 2022)
Values joined by “and” are separate entries in the source; they are usually repeats but may differ in a detail not shown here. Equal entries are not always repeated.

What was measured:
D2 receptor = target: T1, D2 receptor (Homo sapiens, UniProt P14416); experiment: Radioligand binding assay, D2 receptor; conditions: mean ± SD, triplicate at 7 concentrations, Cheng-Prusoff; read-out: Affinity Ki D2R
T1 construct: host or cells: cell membranes from cultured cells
T1 sequence (P14416 whole entry): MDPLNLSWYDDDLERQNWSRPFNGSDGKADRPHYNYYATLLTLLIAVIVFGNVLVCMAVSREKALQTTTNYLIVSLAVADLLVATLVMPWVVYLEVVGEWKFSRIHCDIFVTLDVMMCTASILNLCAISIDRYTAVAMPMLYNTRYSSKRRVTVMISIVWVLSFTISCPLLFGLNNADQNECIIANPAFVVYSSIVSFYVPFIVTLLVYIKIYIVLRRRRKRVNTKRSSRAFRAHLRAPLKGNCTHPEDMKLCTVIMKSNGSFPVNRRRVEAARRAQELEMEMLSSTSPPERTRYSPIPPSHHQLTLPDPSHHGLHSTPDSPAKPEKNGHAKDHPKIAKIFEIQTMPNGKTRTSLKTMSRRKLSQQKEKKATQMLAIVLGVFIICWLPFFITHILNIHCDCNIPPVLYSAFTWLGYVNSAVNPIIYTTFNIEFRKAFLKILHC
Description: (§1) The affinity of the studied compounds to 5-HT1A, 5-HT2A, 5-HT6, 5-HT7, and D2 receptors was evaluated by a radioligand assay, as reported previously (Table 1). Each compound was tested in triplicate at seven concentrations (from 0.1 nM to 100 µM). Inhibition constants (Ki) were calculated from the Cheng–Prusoff equation [23].
(§2) The cell culture, cell membranes, and radioligand binding assays were performed in accordance with standard protocols.

5-HT2A receptor = target: T2, 5-HT2A receptor (Homo sapiens, UniProt P28223); experiment: Radioligand binding assay, 5-HT2A receptor; conditions: mean ± SD, triplicate at 7 concentrations, Cheng-Prusoff; read-out: Affinity Ki 5-HT2AR
T2 construct: host or cells: cell membranes from cultured cells
T2 sequence (P28223 whole entry): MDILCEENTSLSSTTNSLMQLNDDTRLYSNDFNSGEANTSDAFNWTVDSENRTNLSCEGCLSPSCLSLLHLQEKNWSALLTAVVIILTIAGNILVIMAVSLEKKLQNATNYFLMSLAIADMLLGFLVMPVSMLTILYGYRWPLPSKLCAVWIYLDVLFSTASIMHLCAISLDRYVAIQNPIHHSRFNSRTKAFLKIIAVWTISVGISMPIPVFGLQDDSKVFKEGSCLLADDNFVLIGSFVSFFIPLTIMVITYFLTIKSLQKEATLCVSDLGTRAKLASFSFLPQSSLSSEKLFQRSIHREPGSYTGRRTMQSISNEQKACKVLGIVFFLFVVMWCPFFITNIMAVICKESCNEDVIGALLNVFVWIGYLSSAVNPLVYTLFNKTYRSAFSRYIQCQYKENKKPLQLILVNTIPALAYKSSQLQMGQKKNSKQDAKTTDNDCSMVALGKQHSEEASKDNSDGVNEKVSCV
Description: as §1, §2

5-HT6 receptor = target: T3, 5-HT6 receptor (Homo sapiens, UniProt P50406); experiment: Radioligand binding assay, 5-HT6 receptor; conditions: mean ± SD, triplicate at 7 concentrations, Cheng-Prusoff; read-out: Affinity Ki 5-HT6R
T3 construct: host or cells: cell membranes from cultured cells
T3 sequence (P50406 whole entry): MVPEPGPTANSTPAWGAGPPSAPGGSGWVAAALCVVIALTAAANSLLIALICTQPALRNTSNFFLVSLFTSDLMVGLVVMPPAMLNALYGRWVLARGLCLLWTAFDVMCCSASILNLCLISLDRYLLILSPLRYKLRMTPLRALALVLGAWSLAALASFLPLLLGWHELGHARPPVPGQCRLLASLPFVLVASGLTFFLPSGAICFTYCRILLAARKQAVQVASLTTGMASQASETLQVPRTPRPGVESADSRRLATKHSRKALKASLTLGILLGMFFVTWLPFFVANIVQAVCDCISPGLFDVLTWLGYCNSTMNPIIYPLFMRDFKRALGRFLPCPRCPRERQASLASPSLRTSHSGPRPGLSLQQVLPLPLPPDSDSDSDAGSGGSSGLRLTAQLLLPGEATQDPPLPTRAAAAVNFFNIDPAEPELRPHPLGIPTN
Description: as §1, §2

5-HT1A receptor = target: T4, 5-HT1A receptor (Homo sapiens, UniProt P08908); experiment: Radioligand binding assay, 5-HT1A receptor; conditions: mean ± SD, triplicate at 7 concentrations, Cheng-Prusoff; read-out: Affinity Ki 5-HT1AR
T4 construct: host or cells: cell membranes from cultured cells
T4 sequence (P08908 1-422): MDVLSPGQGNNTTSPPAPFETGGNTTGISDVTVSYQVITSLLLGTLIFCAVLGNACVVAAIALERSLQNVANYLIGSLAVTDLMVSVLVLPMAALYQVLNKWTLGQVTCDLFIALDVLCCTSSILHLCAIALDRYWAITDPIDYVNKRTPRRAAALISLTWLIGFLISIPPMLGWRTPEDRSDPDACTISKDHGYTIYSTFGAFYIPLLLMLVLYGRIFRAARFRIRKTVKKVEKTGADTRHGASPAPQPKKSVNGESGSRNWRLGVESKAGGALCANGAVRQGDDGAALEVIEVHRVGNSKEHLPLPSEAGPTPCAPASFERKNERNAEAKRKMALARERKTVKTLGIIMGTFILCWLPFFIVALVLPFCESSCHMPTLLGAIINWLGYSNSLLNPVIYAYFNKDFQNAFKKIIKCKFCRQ
Description: as §1, §2

5-HT7 receptor = target: T5, 5-HT7 receptor (Homo sapiens, UniProt P34969); experiment: Radioligand binding assay, 5-HT7 receptor; conditions: for activity with respect to 5-HT7R (in words): SAR discussion of radioligand data; for Ki: mean ± SD, triplicate at 7 concentrations, Cheng-Prusoff, read-out: Affinity Ki 5-HT7R
T5 construct: host or cells: cell membranes from cultured cells
T5 sequence (P34969 1-432 limits assumed): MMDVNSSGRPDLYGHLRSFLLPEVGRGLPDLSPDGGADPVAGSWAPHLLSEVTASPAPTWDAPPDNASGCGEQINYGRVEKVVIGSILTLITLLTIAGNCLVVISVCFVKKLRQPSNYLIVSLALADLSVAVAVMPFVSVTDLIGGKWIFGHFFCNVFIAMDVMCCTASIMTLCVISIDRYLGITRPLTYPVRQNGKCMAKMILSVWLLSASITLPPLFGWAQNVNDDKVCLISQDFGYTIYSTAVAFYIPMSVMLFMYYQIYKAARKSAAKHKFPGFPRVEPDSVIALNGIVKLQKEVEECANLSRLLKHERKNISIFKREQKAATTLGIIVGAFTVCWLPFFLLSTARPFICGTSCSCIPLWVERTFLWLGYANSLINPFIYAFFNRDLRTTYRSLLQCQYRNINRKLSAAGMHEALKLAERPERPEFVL
Description: as §1, §2

Row | Structure (SMILES) | Ki (D2 receptor) | Ki (5-HT2A receptor) | Ki (5-HT6 receptor) | Ki (5-HT1A receptor) | activity with respect to 5-HT7R (in words) (5-HT7 receptor) | Ki (5-HT7 receptor) | melting point
1 | Cl.Nc1nc(NCCNc2cccc(F)c2)nc(NCCc2c[nH]c3ccccc23)n1 [Compound 11, N^2-(2-(1H-Indol-3-yl)ethyl)-N^4-(2-((3-Fluorophenyl)amino)ethyl)-1,3,5-Triazine-2,4,6-Triamine Hydrochloride] | 13.8 µM | 1.28 ± 0.168 µM | 0.979 ± 0.237 µM | 34.6 µM | active | 0.024 ± 0.005 µM | 74 to 79 °C
2 | Cl.Nc1nc(NCCNc2ccc(Cl)cc2)nc(NCCc2c[nH]c3ccccc23)n1 [Compound 9, N^2-(2-(1H-Indol-3-yl)ethyl)-N^4-(2-((4-Chlorophenyl)amino)ethyl)-1,3,5-Triazine-2,4,6-Triamine Hydrochloride] |  | 2.7 ± 0.581 µM | 0.641 ± 0.084 µM | 16.2 µM | active | 0.019 ± 0.004 µM | 97 to 100 °C
3 | Cl.Nc1nc(NCCc2c[nH]c3ccccc23)nc(NCCn2c(C(F)(F)F)nc3ccccc32)n1 [Compound 19, N^2-(2-(1H-Indol-3-yl)ethyl)-N^4-(2-(2-(Trifluoromethyl)-1H-Benzo[d]imidazol-1-yl)ethyl)-1,3,5-Triazine-2,4,6-Triamine Hydrochloride] |  | 4.03 ± 0.537 µM | 0.825 ± 0.072 µM | 76.2 µM |  | > 1 µM and 3.46 µM | 108 to 110 °C
4 | Cc1nc2ccccc2n1CCNc1nc(N)nc(NCCc2c[nH]c3ccccc23)n1.Cl [Compound 18, N^2-(2-(1H-indol-3-yl)ethyl)-N^4-(2-(2-methyl-1H-benzo[d]imidazol-1-yl)ethyl)-1,3,5-triazine-2,4,6-triamine hydrochloride] |  | 9.35 ± 0.831 µM | 1.96 ± 0.269 µM |  |  | > 1 µM and 4.13 µM | 190 to 194 °C
5 | Cl.Nc1nc(NCCc2c[nH]c3ccccc23)nc(Nc2cccc(Cl)c2)n1 [Compound 20, N^2-(2-(1H-Indol-3-yl)ethyl)-N^4-(3-Chlorophenyl)-1,3,5-Triazine-2,4,6-Triamine Hydrochloride] | 2.27 ± 0.153 µM | 2.69 ± 0.549 µM | 2.23 ± 0.528 µM | 14.1 µM | inactive | 1.95 ± 0.261 µM | 174 to 178 °C
6 | Cl.Nc1nc(NCCNc2ccccc2Cl)nc(NCCc2c[nH]c3ccccc23)n1 [Compound 7, N^2-(2-(1H-Indol-3-yl)ethyl)-N^4-(2-((2-Chlorophenyl)amino)ethyl)-1,3,5-Triazine-2,4,6-Triamine Hydrochloride] | 4.29 ± 1.03 µM | 2.12 ± 0.352 µM | 0.892 ± 0.144 µM | 30.8 µM | moderately active | 0.423 ± 0.037 µM | 105 to 108 °C
7 | COc1ccc2[nH]cc(CCNc3nc(N)nc(NCCc4ccccc4)n3)c2c1.Cl [Compound 5, N^2-(2-(5-Methoxy-1H-Indol-3-yl)ethyl)-N^4-Phenethyl-1,3,5-Triazine-2,4,6-Triamine Hydrochloride] |  | 0.883 ± 0.108 µM | 0.509 ± 0.033 µM | 3.13 ± 0.758 µM |  | 0.629 ± 0.148 µM | 111 to 115 °C
8 | Cl.Nc1nc(NCCNc2cccc(Cl)c2)nc(NCCc2c[nH]c3ccccc23)n1 [Compound 8, N^2-(2-(1H-Indol-3-yl)ethyl)-N^4-(2-((3-Chlorophenyl)amino)ethyl)-1,3,5-Triazine-2,4,6-Triamine Hydrochloride] | 1.24 ± 0.257 µM | 1.8 ± 0.264 µM | 4.02 ± 0.719 µM | 15.6 µM | moderately active | 0.131 ± 0.016 µM | 77 to 82 °C
9 | Cc1ccc2[nH]cc(CCNc3nc(N)nc(NCCc4ccccc4)n3)c2c1.Cl [Compound 6, N^2-(2-(5-Methyl-1H-Indol-3-yl)ethyl)-N^4-Phenethyl-1,3,5-Triazine-2,4,6-Triamine Hydrochloride] |  | 0.835 ± 0.168 µM | 0.714 ± 0.112 µM | 16.6 µM |  | 0.1 ± 0.015 µM | 118 to 121 °C
10 | COc1ccc(NCCNc2nc(N)nc(NCCc3c[nH]c4ccccc34)n2)cc1.Cl [Compound 15, N^2-(2-(1H-Indol-3-yl)ethyl)-N^4-(2-((4-Methoxyphenyl)amino)ethyl)-1,3,5-Triazine-2,4,6-Triamine Hydrochloride] |  |  |  |  |  | 0.756 ± 0.107 µM | 150 to 153 °C
11 | Cl.N#Cc1ccc2[nH]cc(CCNc3nc(N)nc(NCCc4ccccc4)n3)c2c1 [Compound 1, 3-(2-((4-Amino-6-(Phenethylamino)-1,3,5-Triazin-2-yl)Amino)Ethyl)-1H-Indole-5-Carbonitrile Hydrochloride] |  | 0.927 ± 0.927 µM |  | 13 µM | activity toward the 5-HT7 receptor being lost | 2.88 ± 0.351 µM | 95 to 98 °C
12 | Cl.Nc1nc(NCCc2c[nH]c3ccccc23)nc(Nc2ccc(F)cc2)n1 [Compound 21, N^2-(2-(1H-Indol-3-yl)ethyl)-N^4-(4-Fluorophenyl)-1,3,5-Triazine-2,4,6-Triamine Hydrochloride] | 7.03 ± 0.439 µM | 0.884 ± 0.073 µM | 1.77 ± 0.243 µM |  | inactive | 2.05 ± 0.419 µM | 232 to 235 °C
13 | Cl.Nc1nc(NCCc2ccccc2)nc(NCCc2c[nH]c3ccc(Br)cc23)n1 [Compound 3, N^2-(2-(5-Bromo-1H-Indol-3-yl)ethyl)-N^4-Phenethyl-1,3,5-Triazine-2,4,6-Triamine Hydrochloride] |  | 0.942 ± 0.112 µM | 0.234 ± 0.027 µM | 11 µM |  | 0.126 ± 0.017 µM | 82 to 85 °C
14 | Cl.Nc1nc(NCCc2c[nH]c3ccccc23)nc(NCCn2cnc3ccccc32)n1 [Compound 17, N^2-(2-(1H-Benzo[d]imidazol-1-yl)ethyl)-N^4-(2-(1H-Indol-3-yl)ethyl)-1,3,5-Triazine-2,4,6-Triamine Hydrochloride] |  | 11.1 µM | 2.63 ± 0.427 µM | 63 µM |  | 0.227 ± 0.037 µM | 195 to 200 °C
15 | COc1cccc(NCCNc2nc(N)nc(NCCc3c[nH]c4ccccc34)n2)c1.Cl [Compound 14, N^2-(2-(1H-Indol-3-yl)ethyl)-N^4-(2-((3-Methoxyphenyl)amino)ethyl)-1,3,5-Triazine-2,4,6-Triamine Hydrochloride] | 36 µM | 2.45 ± 0.273 µM | 2.79 ± 0.342 µM |  |  | 1.04 ± 0.081 µM | 140 to 143 °C
16 | COc1ccc(Nc2nc(N)nc(NCCc3c[nH]c4ccccc34)n2)cc1.Cl [Compound 22, N^2-(2-(1H-Indol-3-yl)ethyl)-N^4-(4-Methoxyphenyl)-1,3,5-Triazine-2,4,6-Triamine Hydrochloride] |  | 3.11 ± 0.438 µM | 3.74 ± 0.539 µM | 79.8 µM | weakly active | 0.727 ± 0.107 µM | 194 to 196 °C
17 | Cl.Nc1nc(NCCc2c[nH]c3ccccc23)nc(NCCN2C(=O)c3ccccc3C2=O)n1 [Compound 16, 2-(2-((4-((2-(1H-Indol-3-yl)ethyl)amino)-6-Amino-1,3,5-Triazin-2-yl)amino)ethyl)isoindoline-1,3-Dione Hydrochloride] | 13.3 µM | 22.4 µM | 8.76 ± 1.76 µM |  |  | > 1 µM and 21.6 µM | 136 to 138 °C
18 | Cl.Nc1nc(NCCc2ccccc2)nc(NCCc2c[nH]c3ccc(Cl)cc23)n1 [Compound 4, N^2-(2-(5-Chloro-1H-Indol-3-yl)ethyl)-N^4-Phenethyl-1,3,5-Triazine-2,4,6-Triamine Hydrochloride] | 14.5 µM | 0.559 ± 0.041 µM | 0.702 ± 0.048 µM | 3.91 ± 0.581 µM |  | 0.481 ± 0.023 µM | 106 to 108 °C
19 | Cl.Nc1nc(NCCNc2ccccc2F)nc(NCCc2c[nH]c3ccccc23)n1 [Compound 10, N^2-(2-(1H-Indol-3-yl)ethyl)-N^4-(2-((2-Fluorophenyl)amino)ethyl)-1,3,5-Triazine-2,4,6-Triamine Hydrochloride] | 20.4 µM | 1.51 ± 0.362 µM | 0.982 ± 0.115 µM | 36.5 µM | moderately active | 0.132 ± 0.009 µM | 94 to 97 °C
